From ChEMBL document CHEMBL5303573, “Mapping human microbiome drug metabolism by gut bacteria and their genes” (Nature, 2019)

Tests used:
[1] = The drug is tested on Bifidobacterium longum subsp. Infantis strain: CCUG52486 for biotransformation. The drug concentrations were measured before and after a 12-h incubation by liquid-chromatography-coupled mass spectrometry (LC–MS); conditions: 2 µM
[2] = The drug is tested on Collinsella intestinalis strain: DSM13280 for biotransformation. The drug concentrations were measured before and after a 12-h incubation by liquid-chromatography-coupled mass spectrometry (LC–MS); conditions: 2 µM
[3] = The drug is tested on Bacteroides cellulosilyticus strain: DSM14838 for biotransformation. The drug concentrations were measured before and after a 12-h incubation by liquid-chromatography-coupled mass spectrometry (LC–MS); conditions: 2 µM
[4] = The drug is tested on Bacteroides fragilis strain: HMW615 for biotransformation. The drug concentrations were measured before and after a 12-h incubation by liquid-chromatography-coupled mass spectrometry (LC–MS); conditions: 2 µM
[5] = The drug is tested on Bacteroides fragilis strain: ATCC43859 for biotransformation. The drug concentrations were measured before and after a 12-h incubation by liquid-chromatography-coupled mass spectrometry (LC–MS); conditions: 2 µM
[6] = The drug is tested on Blautia hansenii strain: DSM20583 for biotransformation. The drug concentrations were measured before and after a 12-h incubation by liquid-chromatography-coupled mass spectrometry (LC–MS); conditions: 2 µM
[7] = The drug is tested on Clostridium asparagiforme strain: DSM15981 for biotransformation. The drug concentrations were measured before and after a 12-h incubation by liquid-chromatography-coupled mass spectrometry (LC–MS); type: ADME; set-up: dose 2 uM, timepoint 0 vs 12 hours; conditions: enterocloster asparagiformis, 2 µM
[8] = The drug is tested on Clostridium sp. strain: fecal isolate for biotransformation. The drug concentrations were measured before and after a 12-h incubation by liquid-chromatography-coupled mass spectrometry (LC–MS); conditions: 2 µM
[9] = The drug is tested on Enterococcus faecalis strain: V583 for biotransformation. The drug concentrations were measured before and after a 12-h incubation by liquid-chromatography-coupled mass spectrometry (LC–MS); conditions: 2 µM
[10] = The drug is tested on Eubacterium hallii strain: DSM3353 for biotransformation. The drug concentrations were measured before and after a 12-h incubation by liquid-chromatography-coupled mass spectrometry (LC–MS); conditions: anaerobutyricum hallii, 2 µM
[11] = The drug is tested on Ruminococcus gnavus strain: ATCC29149 for biotransformation. The drug concentrations were measured before and after a 12-h incubation by liquid-chromatography-coupled mass spectrometry (LC–MS); conditions: mediterraneibacter gnavus, 2 µM
[12] = The drug is tested on Providencia rettgeri strain: DSM1131 for biotransformation. The drug concentrations were measured before and after a 12-h incubation by liquid-chromatography-coupled mass spectrometry (LC–MS); type: ADME; set-up: dose 2 uM, timepoint 0 vs 12 hours; conditions: 2 µM
[13] = The drug is tested on Providencia stuartii strain: ATCC25827 for biotransformation. The drug concentrations were measured before and after a 12-h incubation by liquid-chromatography-coupled mass spectrometry (LC–MS); conditions: 2 µM
[14] = bacteroides eggerthii, 12 h, 2 µM
Description: The drug is tested on Bacteroides eggerthii strain: DSM20697 for biotransformation. The drug concentrations were measured before and after a 12-h incubation by liquid-chromatography-coupled mass spectrometry (LC–MS)

[15] = bacteroides stercoris, 12 h, 2 µM
Description: The drug is tested on Bacteroides stercoris strain: ATCC43183 for biotransformation. The drug concentrations were measured before and after a 12-h incubation by liquid-chromatography-coupled mass spectrometry (LC–MS)

[16] = bacteroides thetaiotaomicron, 12 h, 2 µM
Description: The drug is tested on Bacteroides thetaiotaomicron strain: VPI-5482 for biotransformation. The drug concentrations were measured before and after a 12-h incubation by liquid-chromatography-coupled mass spectrometry (LC–MS)

[17] = segatella copri, 12 h, 2 µM
Description: The drug is tested on Prevotella copri strain: DSM18205 for biotransformation. The drug concentrations were measured before and after a 12-h incubation by liquid-chromatography-coupled mass spectrometry (LC–MS)

[18] = enterocloster bolteae, 12 h, 2 µM
Description: The drug is tested on Clostridium bolteae strain: ATCCBAA-613 for biotransformation. The drug concentrations were measured before and after a 12-h incubation by liquid-chromatography-coupled mass spectrometry (LC–MS)

[19] = limosilactobacillus reuteri cf48-3a, 12 h, 2 µM
Description: The drug is tested on Lactobacillus reuteri CF48-3A strain: BEI HM-102 for biotransformation. The drug concentrations were measured before and after a 12-h incubation by liquid-chromatography-coupled mass spectrometry (LC–MS)

[20] = victivallis vadensis, 12 h, 2 µM
Description: The drug is tested on Victivallis vadensis strain: ATCC BAA-548 for biotransformation. The drug concentrations were measured before and after a 12-h incubation by liquid-chromatography-coupled mass spectrometry (LC–MS)

SMILES | Bacterial Biotransformation [1] | Bacterial Biotransformation [2] | Bacterial Biotransformation [3] | Bacterial Biotransformation [4] | Bacterial Biotransformation [5] | Bacterial Biotransformation [6] | Bacterial Biotransformation [7] | Bacterial Biotransformation [8] | Bacterial Biotransformation [9] | Bacterial Biotransformation [10] | Bacterial Biotransformation [11] | Bacterial Biotransformation [12] | Bacterial Biotransformation [13] | Bacterial Biotransformation [14] | Bacterial Biotransformation [15] | Bacterial Biotransformation [16] | Bacterial Biotransformation [17] | Bacterial Biotransformation [18] | Bacterial Biotransformation [19] | Bacterial Biotransformation [20]
N[C@@H](Cc1ccc(N(CCCl)CCCl)cc1)C(=O)O | Compound metabolized | Compound metabolized | Compound metabolized | Compound metabolized | Compound metabolized | Compound metabolized | Compound metabolized | Compound metabolized | Compound metabolized | Compound metabolized | Compound metabolized | Compound metabolized | Compound metabolized | Compound metabolized | Compound metabolized | Compound metabolized | Compound metabolized | Compound metabolized | Compound metabolized | Compound metabolized
C[C@@H]1CC[C@H]2[C@@H](C)C(=O)O[C@@H]3O[C@@]4(C)CC[C@@H]1[C@]32OO4 [ARTEMISININ] | Compound metabolized | Compound metabolized | Compound metabolized | Compound metabolized | Compound metabolized | Compound metabolized | Compound metabolized | Compound metabolized | Compound metabolized | Compound metabolized | Compound metabolized | Compound metabolized | Compound metabolized | Compound metabolized | Compound metabolized | Compound metabolized | Compound metabolized | Compound metabolized | Compound metabolized | Compound metabolized
CCN(CC)CCOCCOC(=O)C1(c2ccccc2)CCCC1.O=C(O)CC(O)(CC(=O)O)C(=O)O [CARBETAPENTANE CITRATE] | Compound metabolized | Compound metabolized | Compound metabolized | Compound NOT metabolized | Compound NOT metabolized | Compound metabolized | Compound metabolized | Compound metabolized | Compound metabolized | Compound metabolized | Compound metabolized | Compound metabolized | Compound metabolized | Compound metabolized | Compound metabolized | Compound metabolized | Compound metabolized | Compound metabolized | Compound metabolized | Compound metabolized
COc1ccc2[nH]c([S+]([O-])Cc3ncc(C)c(OC)c3C)nc2n1 (centres undefined) [TENATOPRAZOLE] | Compound metabolized | Compound metabolized | Compound metabolized | Compound metabolized | Compound metabolized | Compound metabolized | Compound metabolized | Compound metabolized | Compound metabolized | Compound metabolized | Compound metabolized | Compound metabolized | Compound metabolized | Compound metabolized | Compound metabolized | Compound metabolized | Compound metabolized | – | Compound metabolized | Compound metabolized

Next, values leading:

Bacterial Biotransformation [1] | Bacterial Biotransformation [2] | Bacterial Biotransformation [3] | Bacterial Biotransformation [4] | Bacterial Biotransformation [5] | Bacterial Biotransformation [6] | Bacterial Biotransformation [7] | Bacterial Biotransformation [8] | Bacterial Biotransformation [9] | Bacterial Biotransformation [10] | Bacterial Biotransformation [11] | Bacterial Biotransformation [12] | Bacterial Biotransformation [13] | Bacterial Biotransformation [14] | Bacterial Biotransformation [15] | Bacterial Biotransformation [16] | Bacterial Biotransformation [17] | Bacterial Biotransformation [18] | Bacterial Biotransformation [19] | Bacterial Biotransformation [20] | SMILES
Compound NOT metabolized | Compound NOT metabolized | Compound NOT metabolized | Compound NOT metabolized | Compound NOT metabolized | Compound NOT metabolized | Compound NOT metabolized | Compound NOT metabolized | Compound NOT metabolized | Compound NOT metabolized | Compound NOT metabolized | Compound NOT metabolized | Compound NOT metabolized | Compound NOT metabolized | Compound NOT metabolized | Compound NOT metabolized | Compound NOT metabolized | Compound NOT metabolized | Compound NOT metabolized | Compound NOT metabolized | CN1CCc2cccc3c2[C@H]1Cc1ccc(O)c(O)c1-3 [APOMORPHINE]
Compound metabolized | Compound metabolized | Compound metabolized | Compound metabolized | Compound metabolized | Compound metabolized | Compound metabolized | Compound metabolized | Compound metabolized | Compound metabolized | Compound metabolized | Compound metabolized | Compound metabolized | Compound metabolized | Compound metabolized | Compound metabolized | Compound metabolized | Compound metabolized | Compound metabolized | Compound metabolized | CC(=O)Oc1ccc(C(c2ccc(OC(C)=O)cc2)c2ccccn2)cc1 [BISACODYL]
Compound NOT metabolized | Compound NOT metabolized | Compound metabolized | Compound metabolized | Compound NOT metabolized | Compound metabolized | Compound metabolized | Compound NOT metabolized | Compound NOT metabolized | Compound metabolized | Compound NOT metabolized | Compound NOT metabolized | Compound metabolized | Compound NOT metabolized | Compound metabolized | Compound metabolized | Compound metabolized | Compound NOT metabolized | Compound NOT metabolized | Compound NOT metabolized | COc1ccccc1OCCNCC(O)COc1cccc2[nH]c3ccccc3c12 (centres undefined) [CARVEDILOL]
Compound metabolized | Compound metabolized | Compound metabolized | Compound metabolized | Compound metabolized | Compound metabolized | Compound metabolized | Compound metabolized | Compound metabolized | Compound metabolized | Compound metabolized | Compound metabolized | Compound metabolized | Compound metabolized | Compound metabolized | Compound metabolized | Compound metabolized | Compound metabolized | Compound metabolized | Compound metabolized | CC(=O)OCC(=O)[C@@]12N=C(C)O[C@@H]1C[C@H]1[C@@H]3CCC4=CC(=O)C=C[C@]4(C)[C@H]3[C@@H](O)C[C@@]12C [DEFLAZACORT]
